Values joined by “and” are separate entries in the source; they are usually repeats but may differ in a detail not shown here. Equal values may be shown once. Read-outs that look alike come from different tables or passages of the source.
Key:
[1] = log P determination by HPLC on reversed-phase columns (C 18), analogous to OECD Guideline 117; assay type: physicochemical; conditions: for logP[a]: method [a]; for logP[b]: method [b]; for chromatographic logP: reversed-phase HPLC column (C 18)
Experimental: The log P values were determined analogously to OECD Guideline 117 (EC Directive 92/69/EEC) by HPLC (high-performance liquid chromatography) using reversed-phase columns (C 18), by the following methods: [a] The LC-MS determination in the acidic range was effected at pH 2.7 with 0.1% aqueous formic acid and acetonitrile (contains 0.1% formic acid) as eluents; linear gradient from 10% acetonitrile to 95% acetonitrile. log P[a] is also referred to as log P(HCOOH). [b] LC-MS determination in the neutral range was effected at pH 7.8 with 0.001 molar aqueous ammonium hydrogencarbonate solution and acetonitrile as eluents; linear gradient from 10% acetonitrile to 95% acetonitrile. log P[b] is also referred to as log P(neutral). Calibration is effected with solutions of a homologous series of unbranched alkan-2-ones (having 3 to 16 carbon atoms) with known log P values (log P values determined on the basis of the retention times by linear interpolation between two successive alkanones).

[2] = system: Tetranychus urticae; test: Tetranychus urticae - spray test, OP-resistant (bean leaf discs, 6 days); assay type: in vivo; conditions: 500 g/ha, after 6 days; for pest or weed control at 500 g/ha: Tetranychus urticae, foliar, 144 h, read-out: efficacy (spider mites killed)
Experimental: 5. Tetranychus urticae—Spray Test, OP-Resistant
Solvent: 78.0 parts by weight of acetone
• 1.5 parts by weight of dimethylformamide Emulsifier: alkylaryl polyglycol ether
To produce a suitable preparation of active compound, 1 part by weight of active compound is dissolved using the stated parts by weight of solvent and made up with water containing an emulsifier concentration of 1000 ppm until the desired concentration is attained. To produce further test concentrations, the preparation is diluted with emulsifier-containing water.
Discs of bean leaves (Phaseolus vulgaris) infested with all stages of the greenhouse red spider mite (Tetranychus urticae) are sprayed with an active compound preparation of the desired concentration.
After 6 days, the efficacy in % is determined. 100% means that all the spider mites have been killed; 0% means that no spider mites have been killed.

[3] = pH 2.7, HPLC, acidic range, pH 2.7, 0.1% aqueous formic acid and acetonitrile, read-out: log P(HCOOH)
[4] = pH 2.7, Table 3, HPLC, acidic range, pH 2.7, read-out: logP[a]
[5] = pH 7.8, HPLC, neutral range, pH 7.8, 0.001 molar aqueous ammonium hydrogencarbonate and acetonitrile, read-out: log P(neutral)
[6] = pH 7.8, Table 3, HPLC, neutral range, pH 7.8, read-out: logP[b]
[7] = pH 2.7, method [a], read-out: logP[a]
[8] = pH 7.8, method [b], read-out: logP[b]

SMILES | logP[a] [1] | logP[b] [1] | efficacy (spider mites killed) [2] | further results
Cc1cc(F)c(N2C(=O)N(C(=O)NCC(F)(F)F)C(C)(C)C2=O)cc1SCC(F)(F)F [compound 75] | 4.02 | 3.95 | – | –
CCNC(=O)N1CC(=O)N(c2cc(SCC(F)(F)F)c(C)cc2Cl)C1=O [compound 51] | 3.19 | 3.13 | 100% | –
Cc1cc(F)c(N2C(=O)N(C(=O)NCC(F)(F)F)C(C)(C)C2=O)cc1[S+]([O-])CC(F)(F)F (racemic) [compound 85] | 3.07 | 3.05 | 100% | –
Cc1cc(F)c(N2C(=O)C(C)N(C(=O)NCC(C)C)C2=O)cc1SCC(F)(F)F (racemic) [compound 80] | 3.99 | 3.98 | 100% | –
Cc1cc(F)c(N2C(=O)CNC2=S)cc1SCC(F)(F)F [IIa-2, 3-[2-Fluoro-4-methyl-5-(2,2,2-trifluoroethylsulphanyl)phenyl]-2-thioxoimidazolidin-4-one] | – | – | – | pest or weed control at 500 g/ha [2]: 100%; chromatographic logP [1, 3]: 2.53; chromatographic logP [1, 4]: 2.53; chromatographic logP [1, 5]: 2.5; chromatographic logP [1, 6]: 2.5
Cc1cc(F)c(N2C(=O)N(C(=O)NC3CC3)C(C)(C)C2=O)cc1[S+]([O-])CC(F)(F)F (stereo not shown) [Ex. No. 84, N-Cyclopropyl-3-[2-fluoro-4-methyl-5-(2,2,2-trifluoroethylsulphinyl)phenyl]-5,5-dimethyl-2,4-dioxoimidazolidine-1-carboxamide] | – | – | – | pest or weed control at 500 g/ha [2]: 100%; chromatographic logP [1, 3]: 2.73; chromatographic logP [1, 7]: 2.73; chromatographic logP [1, 5]: 2.73; chromatographic logP [1, 8]: 2.73
CCNC(=O)N1C(=O)N(c2cc(SCC(F)(F)F)c(C)cc2F)C(=O)C1C (stereo not shown) [Ex. No. 24, N-Ethyl-3-[2-fluoro-4-methyl-5-(2,2,2-trifluoroethylsulphanyl)phenyl]-5-methyl-2,4-dioxoimidazolidine-1-carboxamide] | – | – | – | pest or weed control at 500 g/ha [2]: 100%; chromatographic logP [1, 3]: 3.38; chromatographic logP [1, 7]: 3.38; chromatographic logP [1, 5]: 3.3; chromatographic logP [1, 8]: 3.3
Cc1cc(F)c(N2C(=O)N(C(=O)NCc3ccccc3)C(C)(C)C2=O)cc1[S+]([O-])CC(F)(F)F (racemic) [compound 87] | 3.48 | 3.38 | 100% | –
Cc1cc(F)c(N2C(=O)CN(C(=O)NC3CC3)C2=O)cc1[S+]([O-])CC(F)(F)F (stereo not shown) [Ex. No. 3, N-Cyclopropyl-3-[2-fluoro-4-methyl-5-(2,2,2-trifluoroethylsulphinyl)phenyl]-2,4-dioxoimidazolidine-1-carboxamide] | – | – | – | pest or weed control at 500 g/ha [2]: 100%; chromatographic logP [1, 3]: 2.15; chromatographic logP [1, 7]: 2.15; chromatographic logP [1, 5]: 2.12; chromatographic logP [1, 8]: 2.12
Cc1cc(F)c(N2C(=O)CN(C(=O)NC(C)C)C2=S)cc1SCC(F)(F)F [compound 5] | 3.98 | 3.87 | – | –
Cc1cc(C)c(N2C(=O)CN(C(=O)Nc3ccccn3)C2=O)cc1SCC(F)(F)F [compound 95] | 3.47 | 3.42 | – | –
CC(C)CNC(=O)N1CC(=O)N(c2cc(SCC(F)(F)F)c(Cl)cc2Cl)C1=O [compound 105] | 3.91 | 3.99 | 100% | –
CCNC(=O)N1CC(=O)N(c2cc([S+]([O-])CC(F)(F)F)c(C)cc2Cl)C1=O (stereo not shown) [compound 64] | 2.23 | 2.24 | 100% | –
Cc1cc(Cl)c(N2C(=O)CN(C(=O)Nc3cccc(Cl)c3)C2=O)cc1SCC(F)(F)F [compound 59] | 4.46 | 4.28 | 100% and 90% | –
Cc1cc(C)c(N2C(=O)CN(C(=O)NCc3ccccc3)C2=O)cc1SCC(F)(F)F [compound 92] | 3.75 | 3.66 | 90% | –
Cc1cc(F)c(N2C(=O)CN(C(=O)NCC(C)C)C2=O)cc1SCC(F)(F)F [Ex. No. 12, 3-[2-Fluoro-4-methyl-5-(2,2,2-trifluoroethylsulphanyl)phenyl]-N-isobutyl-2,4-dioxoimidazolidine-1-carboxamide] | – | – | – | pest or weed control at 500 g/ha [2]: 100%; chromatographic logP [1, 3]: 3.67; chromatographic logP [1, 7]: 3.67; chromatographic logP [1, 5]: 3.58; chromatographic logP [1, 8]: 3.58
Cc1cc(C)c([S+]([O-])CC(F)(F)F)cc1N1C(=O)CN(C(=O)NCc2ccccc2)C1=O (racemic) [compound 98] | 2.85 | 2.77 | 90% | –
Cc1cc(C)c(N2C(=O)CN(C(=O)Nc3cccc(Cl)c3)C2=O)cc1SCC(F)(F)F [compound 56] | 4.32 | 4.19 | – | –

SMILES | logP[a] [1] | logP[b] [1] | efficacy (spider mites killed) [2] | further results
Cc1cc(C)c([S+]([O-])CC(F)(F)F)cc1N1C(=O)CN(C(=O)NC2CC2)C1=O (stereo not shown) [compound 60] | 2.24 | 2.17 | 100% | –
Cc1cc(F)c(N2C(=O)CN(C(=S)NCC(F)(F)F)C2=O)cc1SCC(F)(F)F [compound 102] | 3.71 | 3.84 | 100% | –
Cc1cc(F)c(N2C(=O)CN(C(=O)Nc3cccc(Cl)c3)C2=O)cc1SCC(F)(F)F [compound 45] | 4.23 | 4.16 | 100% | –
Cc1cc(F)c(N2C(=O)C(C)N(C(=O)NC3CC3)C2=O)cc1SCC(F)(F)F (stereo not shown) [compound 25] | 3.43 | 3.35 | 100% | –
Cc1cc(C)c([S+]([O-])CC(F)(F)F)cc1N1C(=O)CN(C(=O)NCC(C)C)C1=O (stereo not shown) [compound 35] | 2.77 | 2.76 | – | –
Cc1cc(Cl)c(N2C(=O)CN(C(=O)Nc3ccccn3)C2=O)cc1SCC(F)(F)F [compound 96] | 3.55 | 3.51 | – | –
Cc1cc(F)c(N2C(=O)CN(C(=O)NCC(C)C)C2=S)cc1SCC(F)(F)F [compound 11] | 4.27 | 4.18 | – | –
CCNC(=O)N1C(=O)N(c2cc(SCC(F)(F)F)c(C)cc2F)C(=O)C1(C)C [compound 73] | 3.72 | 3.70 | – | –
Cc1cc(F)c(N2C(=O)NC(C)C2=O)cc1SCC(F)(F)F (stereo not shown) [IIa-3, 3-[2-Fluoro-4-methyl-5-(2,2,2-trifluoroethylsulphanyl)phenyl]-5-methylimidazolidine-2,4-dione] | – | – | – | chromatographic logP [1, 3]: 2.34; chromatographic logP [1, 4]: 2.34; chromatographic logP [1, 5]: 2.31; chromatographic logP [1, 6]: 2.31
Cc1cc(F)c(N2C(=O)CN(C(=O)NC3CC3)C2=S)cc1SCC(F)(F)F [Ex. No. 2, N-Cyclopropyl-3-[2-fluoro-4-methyl-5-(2,2,2-trifluoroethylsulphanyl)phenyl]-4-oxo-2-thioxoimidazolidine-1-carboxamide] | – | – | – | chromatographic logP [1, 3]: 3.66; chromatographic logP [1, 7]: 3.66; chromatographic logP [1, 5]: 3.56; chromatographic logP [1, 8]: 3.56
Cc1cc(Cl)c(N2C(=O)CN(C(=O)Nc3ccccn3)C2=O)cc1[S+]([O-])CC(F)(F)F (racemic) [compound 119] | 2.65 | 2.65 | – | –
Cc1cc(F)c(N2C(=O)CN(C(=O)Nc3cccnc3)C2=O)cc1SCC(F)(F)F [compound 17] | 2.37 | 2.75 | – | –
Cc1cc(F)c(N2C(=O)CN(C(=O)N(C)CC(C)C)C2=O)cc1SCC(F)(F)F [compound 124] | 3.53 | 3.59 | – | –
O=C(NCc1ccccc1)N1CC(=O)N(c2cc(SCC(F)(F)F)c(Cl)cc2Cl)C1=O [compound 107] | 3.86 | 3.90 | – | –
Cc1cc(C)c(N2C(=O)CN(C(=O)Nc3ccc(F)cc3)C2=O)cc1SCC(F)(F)F [compound 93] | 3.95 | 3.86 | – | –
Cc1cc(F)c(N2C(=O)CN(C(=O)NCC(F)(F)F)C2=O)cc1[S+]([O-])CC(F)(F)F (single isomer, unassigned) [Ex. No. 135] | 2.4 | 2.44 | – | –
Cc1cc(F)c(N2C(=O)NC(C)(C)C2=O)cc1SCC(F)(F)F [IIa-5, 3-[2-Fluoro-4-methyl-5-(2,2,2-trifluoroethylsulphanyl)phenyl]-5,5-dimethylimidazolidine-2,4-dione] | – | – | – | chromatographic logP [1, 3]: 2.61; chromatographic logP [1, 4]: 2.61; chromatographic logP [1, 5]: 2.53; chromatographic logP [1, 6]: 2.53
CCNC(=O)N1CC(=O)N(c2cc(SCC(F)(F)F)c(C)cc2F)C1=S [Ex. No. 8] | 3.91 | 3.86 | – | –

Reference: patent US10206398B2, “Five-membered C-N-attached aryl sulphide and aryl sulphoxide derivatives as pesticides” (BAYER CROPSCIENCE AKTIENGESELLSCHAFT, priority 2014, dated 2019)
